Laboratory results published in patent US20220009894A1, “1,2,3,4-TETRAHYDROQUINOXALINE DERIVATIVE, PREPARATION METHOD THEREFOR AND APPLICATION THEREOF” (Abbisko Therapeutics Co., Ltd., priority 2019, published 2022).

Experiments:
[1] = target: T1, RORγt (Homo sapiens, UniProt P51449); experiment: RORγt cellular reporter gene detection assay; assay type: cell-based; settings: 24 hrs; for EC50: HEK 293 cells co-transfected with pFN26A-RORγt-LBD and pG14.35, in presence of antagonist Ursolic acid, top concentration 50 μM; for Cellular Reporter Assay Amax: upper activation limit, HEK 293 cells, in presence of antagonist Ursolic acid;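 for Cellular Reporter Assay Amax: Ursolic Acid added as 5 µL of 20 µM medium per well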
T1 construct: The plasmid of pFN26A-RORγt-LBD and pG14.35 (Promega, Cat. No. E1370) were co-transfected into HEK 293 cells; expressed in transfected cells; host or cells: HEK 293 cells (Cat. No. GNHu18)
T1 sequence (P51449 269-508 limits assumed): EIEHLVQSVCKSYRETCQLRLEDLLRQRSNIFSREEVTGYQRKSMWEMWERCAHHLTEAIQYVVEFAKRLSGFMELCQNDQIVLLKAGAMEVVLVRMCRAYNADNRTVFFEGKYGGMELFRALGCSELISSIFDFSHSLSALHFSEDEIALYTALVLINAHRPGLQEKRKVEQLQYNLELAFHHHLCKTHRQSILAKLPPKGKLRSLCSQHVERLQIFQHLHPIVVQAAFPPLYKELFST
Summary of the method: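 Compounds, titrated 4-fold from a 50 μM top concentration, were added with Ursolic acid to HEK293 cells carrying a RORγt-LBD plasmid and a reporter plasmid. After 24 h at 37° C, dual firefly/Renilla luciferase readout; four-parameter curves gave EC50 and maximal activation (Amax).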

[2] = target: T2, RORγt-LBD (Homo sapiens, UniProt P51449); experiment: Time-resolved fluorescence resonance energy-transfer assay (TR-FRET), co-activator peptide recruitment; assay type: biochemical; parameters: TR-FRET Biochemical Amax: unit not given here; settings: for EC50: His-RORγt-LBD 30 nM, SRC peptide 500 nM, agonistic activity, averages of one or more measurements, read-out: TR-FRET Biochemical EC50/; for TR-FRET Biochemical Amax: upper activation limit, His-RORγt-LBD, SRC peptide
T2 sequence (P51449 269-508 limits assumed): T1 sequence (P51449 269-508 limits assumed)
Summary of the method: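 This agonist-mode TR-FRET used 30 nM His-tagged RORγt-LBD, 500 nM biotinylated SRC peptide, 0.25 nM Eu-anti-His and 5 nM APC-streptavidin in pH 7.0 Tris/KCl buffer with DTT and Triton. A 7-concentration, 5-fold compound series was incubated at 4 °C overnight plus 1 h at room temperature, and the 665/615 nm signal was read.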

SMILES | EC50 [1] | Cellular Reporter Assay Amax [1] | EC50 [2] | TR-FRET Biochemical Amax [2]
C/C(=C\c1ccc2c(c1)N(S(=O)(=O)c1cccc(C(F)(F)F)c1)C[C@@H]1CN(CC(=O)OCOC(=O)OC(C)C)CCN21)c1c(F)cccc1Cl [Example 49, ((isopropoxycarbonyl)oxy)methyl (S,E)-2-(8-(2-(2-chloro-6-fluorophenyl)prop-1-en-1-yl)-6-((3-(trifluoromethyl)phenyl)sulfonyl)-1,2,4,4a,5,6-hexahydro-3H-pyrazino[1,2-a]quinoxalin-3-yl)acetate] | 238 nM | 5.2 | 5.47 nM | 0.61
O=C(O)CN1CCN2c3ccc(/C=C/c4c(Cl)cccc4C(F)(F)F)cc3N(S(=O)(=O)c3cccc(OC(F)(F)F)c3)C[C@@H]2C1 [Example 86, (S,E)-2-(8-(2-chloro-6-(trifluoromethyl)styryl)-6-((3-(trifluoromethoxy)phenyl)sulfonyl)-1,2,4,4a,5,6-hexahydro-3H-pyrazino[1,2-a]quinoxalin-3-yl)acetic acid] | 2340 nM | 12.6 | 78.4 nM | 0.69
C/C(=C\c1ccc2c(c1)N(S(=O)(=O)c1cccc(C(F)(F)F)c1)C[C@@H]1CN(C(C)(C)C(=O)OC(C)(C)C)CCN21)c1c(F)cccc1Cl [Example 53, tert-butyl (S,E)-2-(8-(2-(2-chloro-6-fluorophenyl)prop-1-en-1-yl)-6-((3-(trifluoromethyl)phe-nyl)sulfonyl)-1,2,4,4a,5,6-hexahydro-3H-pyrazino[1,2-a]qui-noxalin-3-yl)-2-methylpropanoate] | ≥ 50000 nM | – | 256 nM | 0.55
CC(CO)(CO)N1CCN2c3ccc(-c4cc(F)cc(OC(F)F)c4)cc3N(S(=O)(=O)c3cccc(C(F)(F)F)c3)C[C@@H]2C1 [Example 72, (S)-2-(8-(3-(difluoromethoxy)-5-fluorophenyl)-6-((3-(trifluoro-methyl)phenyl)sulfonyl)-1,2,4,4a,5,6-hexahydro-3H-pyra-zino[1,2-a]quinoxalin-3-yl)-2-methylpropane-1,3-diol] | 238 nM | 2.6 | 42.3 nM | 0.65
C/C(=C\c1ccc2c(c1)N(S(=O)(=O)c1cccc(C(F)(F)F)c1)C[C@@H]1CN(C(C#N)(CO)CO)CCN21)c1c(F)cccc1Cl [Example 73, (S,E)-2-(8-(2-(2-chloro-6-fluorophenyl)prop-1-en-1-yl)-6-((3-(trifluoromethyl)phenyl)sulfonyl)-1,2,4,4a,5,6-hexahydro-3H-pyrazino[1,2-a]quinoxalin-3-yl)-3-hydroxy-2-(hydroxynethyl)propanenitrile] | 725 nM | 4.6 | 40 nM | 0.96
O=C(O)CN1CCN2c3ccc(/C=C/c4c(Cl)cccc4C(F)(F)F)cc3N(S(=O)(=O)c3cccc(C(F)(F)F)c3)C[C@H]2C1 [Example 83, (R,E)-2-(8-(2-chloro-6-(trifluoromethyl)styryl)-6-((3-(trifluoromethyl)phenyl)sulfonyl)-1,2,4,4a,5,6-hexahydro-3H-pyrazino[1,2-a]quinoxalin-3-yl)acetic acid] | 979 nM | 7.0 | 28.9 nM | 0.98
CC1(C)C=C(c2ccc3c(c2)N(S(=O)(=O)c2cccc(C(F)(F)F)c2)C[C@@H]2CN(CC(=O)O)CCN32)CC(C)(C)O1 [Example 22, (S)-2-(8-(2,2,6,6-tetramethyl-3,6-dihydro-2H-pyran-4-yl)-6-((3-(trifluoromethyl)phenyl)sulfonyl)-1,2,4,4a,5,6-hexa-hydro-3H-pyrazino[1,2-a]quinoxalin-3-yl)acetic acid] | 245 nM | 3.3 | 1.51 nM | 0.62
O=S(=O)(c1cccc(C(F)(F)F)c1)N1C[C@@H]2CN(C[C@H](O)CO)CCN2c2ccc(-c3cc(F)cc(OC(F)F)c3)cc21 [Example 40, (S)-3-((S)-8-(3-(difluoromethoxy)-5-fluorophenyl)-6-((3-(tri-fluoromethyl)phenyl)sulfonyl)-1,2,4,4a,5,6-hexahydro-3H-pyrazino[1,2-a]quinoxalin-3-yl) propane-1,2-diol] | 733 nM | 2.5 | 13 nM | 0.76
NC(=O)N1CCN2c3ccc(/C=C/c4c(Cl)cccc4C(F)(F)F)cc3N(S(=O)(=O)c3cccc(C(F)(F)F)c3)C[C@@H]2C1 [Example 60, (S,E)-8-(2-chloro-6-(trifluoromethyl)styryl)-6-((3-(trifluoromethyl)phenyl)sulfonyl)-1,2,4,4a,5,6-hexahydro-3H-pyrazino[1,2-a]quinoxalin-3-carboxamide] | 249 nM | 2.8 | 61.4 nM | 0.98
O=C(O)CCO[C@@H]1CCN2c3ccc(-c4cc(F)cc(OC(F)F)c4)cc3N(S(=O)(=O)c3cccc(C(F)(F)F)c3)C[C@@H]2C1 [Example 115, 3-(((6aS,8R)-3-(3-(difluorometh-oxy)-5-fluorophenyl)-5-((3-(tri-fluoromethyl)phenyl)sulfonyl)-6,6a,7,8,9,10-hexahydro-5H-pyrido[1,2-a]quinoxalin-8-yl)oxy)propanoic acid] | 178 nM | 5.4 | 67.9 nM | 0.71
O=S(=O)(c1cccc(C(F)(F)F)c1)N1C[C@@H]2CN(C3COC3)CCN2c2ccc(/C=C/c3c(Cl)cccc3C(F)(F)F)cc21 [Example 32, (S,E)-8-(2-chloro-6-(trifluoromethyl)styryl)-3-(oxetan-3-yl)-6-((3-(trifluoromethyl)phenyl)sulfonyl)-2,3,4,4a,5,6-hexahydro-1H-pyrazino[1,2-a]quinoxaline] | 599 nM | 4.3 | 10.8 nM | 0.93
CC1(C)C=C(c2ccc3c(c2)N(S(=O)(=O)c2cc(C(F)(F)F)cnc2OCCO)C[C@@H]2CNCCN32)CC(C)(C)O1 [Example 88, (S)-2-((3-((8-(2,2,6,6-tetramethyl-3,6-dihydro-2H-pyran-4-yl)-1,2,3,4,4a,5-hexa hydro-6H-pyrazino[1,2-a]quinoxalin-6-yl)sulfonyl)-5-(trifluoromethyl)pyridin-2-yl)oxy)ethan-1-ol] | ≥ 50000 nM | – | 191 nM | 0.72
C/C(=C\c1ccc2c(c1)N(S(=O)(=O)c1cccc(C(F)(F)F)c1)C[C@@H]1CN(C3(C(N)=O)CCC3)CCN21)c1c(F)cccc1Cl [Example 79, (S,E)-1-(8-(2-(2-chloro-6-fluorophenyl)prop-1-en-1-yl)-6-((3-(trifluoromethyl)phenyl)sulfonyl)-1,2,4,4a,5,6-hexahydro-3H-pyrazino[1,2-a]quinoxalin-3-yl)cyclobutane-1-carboxamide] | 267 nM | 2.8 | 28.2 nM | 1.15
O=S(=O)(c1cc(C(F)(F)F)cnc1OCCO)N1C[C@@H]2CNCCN2c2ccc(-c3cc(F)cc(OC(F)F)c3)cc21 [Example 87, (S)-2-((3-((8-(3-(difluoromethoxy)-5-fluorophenyl)-1,2,3,4,4a,5-hexahydro-6H-pyrazino[1,2-a]quinoxalin-6-yl)sulfonyl)-5-(trifluoromethyl)pyridin-2-yl)oxy) ethan-1-ol] | ≥ 50000 nM | – | 384 nM | 0.96
O=C(O)CN1CCN2c3ccc(-c4cc(F)cc(OC(F)F)c4)cc3N(S(=O)(=O)c3cccc(C(F)(F)F)c3)C[C@@H]2C1 [Example 9, (S)-2-(8-(3-(difluoromethoxy)-5-fluorophenyl)-6-((3-(trifluoromethyl)phenyl)sulfonyl)-1,2,4,4a,5,6-hexahydro-3H-pyrazino[1,2-a]quinoxalin-3-yl)acetic acid] | 290 nM | 3.5 | 11.6 nM | 0.63
C/C(=C\c1ccc2c(c1)N(S(=O)(=O)c1cccc(C(F)(F)F)c1)C[C@@H]1CN(C3(C#N)CCC3)CCN21)c1c(F)cccc1Cl [Example 76, (S,E)-1-(8-(2-(2-chloro-6-fluorophenyl)prop-1-en-1-yl)-6-((3-(trifluoromethyl)phenyl)sulfonyl)-1,2,4,4a,5,6-hexahydro-3H-pyrazino[1,2-a]quinoxalin-3-yl)cyclobutane-1-carbonitrile] | 1180 nM | 3.2 | 6.54 nM | 0.99
